From patent publication US20260355168A1, “COMPOSITIONS AND METHODS FOR TREATING AND DETECTING CANCER” (CASE WESTERN RESERVE UNIVERSITY, priority 2022, published 2026)
Entries after “also recorded” stand apart in the source; their conditions may differ.

What was measured:
LN229 cells [1] = assay: Helix Blue staining of LN229 spheres (cell survival); format: cell-based, human; conditions: 100 μM, 24 h, qualitative
Method: FIG. 17 illustrates images showing the effects of prioritized inhibitors on cell survival. LN229 cells were plated onto non-adherent surfaces and cultured in the presence of the indicated compounds (100 μM). On day 1, spheres were stained with Helix Blue to detect dying cells. Parental Sf9 cells (which lack PTPμ) plated onto tissue culture plastic were also grown in the presence of the indicated compounds and, on day 1, stained with Helix Blue. Three compounds appeared to cause a qualitative increase in staining in LN229 spheres. No compound was toxic to Sf9 cells.
LN229 cells, plated onto non-adherent surfaces as described above, and parental Sf9 cells (without PTPμ), seeded into 96-well flat bottom tissue culture plates, were treated for 24 h with the indicated compounds (100 μM). The cells and spheres were then treated with 5.5 μM Helix Blue (Biolegend, San Diego, CA) and imaged at 10× on a Leica CTR6500 fluorescence microscope.
The seven penetrant inhibitors were tested to see if they affected the survival of LN229 spheres and parental Sf9 cells (which lack PTPμ) (FIG. 17).

PTPμ = PTPμ (Homo sapiens, UniProt P28827); assay: PTPμ-dependent Sf9 aggregation assay; format: cell-based; conditions: 100 μM; 20 min pretreatment; in words
Sequence of PTPμ (P28827 21-1452): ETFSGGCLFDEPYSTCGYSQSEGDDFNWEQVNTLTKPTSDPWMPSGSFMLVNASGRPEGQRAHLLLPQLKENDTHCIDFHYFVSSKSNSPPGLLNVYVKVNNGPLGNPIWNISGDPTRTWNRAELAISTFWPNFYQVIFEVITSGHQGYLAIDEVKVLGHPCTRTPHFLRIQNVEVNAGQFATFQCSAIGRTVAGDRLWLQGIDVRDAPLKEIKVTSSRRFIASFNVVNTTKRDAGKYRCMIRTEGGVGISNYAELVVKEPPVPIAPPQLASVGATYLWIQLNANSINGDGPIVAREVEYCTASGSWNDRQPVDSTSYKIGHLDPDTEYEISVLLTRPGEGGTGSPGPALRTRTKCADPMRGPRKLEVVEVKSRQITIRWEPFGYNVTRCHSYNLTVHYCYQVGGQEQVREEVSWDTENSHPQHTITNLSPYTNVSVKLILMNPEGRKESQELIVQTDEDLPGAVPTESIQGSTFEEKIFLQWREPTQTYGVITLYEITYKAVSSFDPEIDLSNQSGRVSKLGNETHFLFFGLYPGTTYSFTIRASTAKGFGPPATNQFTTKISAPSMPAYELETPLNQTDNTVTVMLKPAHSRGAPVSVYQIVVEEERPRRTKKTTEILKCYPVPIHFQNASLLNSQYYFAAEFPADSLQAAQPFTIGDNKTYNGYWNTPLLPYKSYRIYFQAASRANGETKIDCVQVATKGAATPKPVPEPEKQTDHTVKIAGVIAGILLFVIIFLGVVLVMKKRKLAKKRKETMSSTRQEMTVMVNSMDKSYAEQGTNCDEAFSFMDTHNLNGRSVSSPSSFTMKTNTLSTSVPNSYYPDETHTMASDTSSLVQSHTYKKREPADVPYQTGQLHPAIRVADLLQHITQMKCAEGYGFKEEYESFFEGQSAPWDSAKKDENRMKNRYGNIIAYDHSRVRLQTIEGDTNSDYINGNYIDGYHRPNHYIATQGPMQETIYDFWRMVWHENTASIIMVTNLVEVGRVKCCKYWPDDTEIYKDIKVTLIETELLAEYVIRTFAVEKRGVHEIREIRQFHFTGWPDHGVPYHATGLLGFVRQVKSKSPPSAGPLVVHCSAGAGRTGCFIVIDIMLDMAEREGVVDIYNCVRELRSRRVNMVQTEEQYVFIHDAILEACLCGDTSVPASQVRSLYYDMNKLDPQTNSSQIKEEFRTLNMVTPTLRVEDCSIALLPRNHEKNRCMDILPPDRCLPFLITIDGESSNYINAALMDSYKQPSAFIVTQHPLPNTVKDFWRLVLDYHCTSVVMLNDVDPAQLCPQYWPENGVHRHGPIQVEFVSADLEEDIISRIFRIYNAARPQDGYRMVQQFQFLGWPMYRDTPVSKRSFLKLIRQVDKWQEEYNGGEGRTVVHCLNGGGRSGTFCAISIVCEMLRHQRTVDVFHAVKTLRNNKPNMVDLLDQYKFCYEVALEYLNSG

Gli36 cells = assay: Gli36 glioma sphere formation and growth assay; format: cell-based, human; conditions: for Effect on Gli36 sphere formation: day 1; for Effect on Gli36 sphere formation / Effect on Gli36 sphere growth: in words
Method: FIGS. 6(A-E) illustrate a histogram and images showing the results of the Gli36 sphere formation and growth assays. Selected inhibitors, activators, and control compounds identified in LN229 and/or U87 scratch wound closure assays were retested at 100 μM in a secondary assay for glioma cell (Gli36) sphere formation and growth. A. Histogram showing the effects of the indicated compounds on Day 1 sphere footprint areas. Footprint areas were measured and normalized to the average footprint area of the unblinded DMSO-treated controls. On day 1, a larger footprint area indicates inhibition of aggregation. B. Histogram showing the effects of the indicated compounds on sphere growth. Changes in sphere footprint areas were calculated and normalized to the average size change of the unblinded vehicle-treated controls. On day 7, a smaller value indicates reduced growth. […] Data is presented as percentages±s.e.m. of 2-4 replicates. Representative images of samples treated with DMSO (C) and two priority inhibitors (D and E) are shown. Relative day 1 footprint areas and day 7 growth measurements are indicated for each example.
(§1) Cells were seeded at a density of 7500 cells per well into the internal wells of 96-well plates coated with 0.75% (wt/vol) PVA as previously described. Compounds were added (2×replicates per treatment) at the indicated final concentrations, and control wells were treated with matching concentrations of DMSO. The external wells of the plates were filled with PBS to buffer against edge effects, and the cells were incubated at 37 °C and 5% CO2 for 7 days. A Leica CTR6500 microscope fitted with an automated stage was used to capture brightfield images on day 1 and day 7, and sphere footprint areas were measured using Image J (v1.52a http://imagej.nih.gov/ij) as previously described. To quantify the effects of the compounds on day 1, the footprint areas of the treated wells were normalized to the average area of the matched DMSO control wells. To quantify the effects of the compounds on sphere growth, the change in the sphere footprint areas was calculated ([…]) and then normalized to the average size change of the matched DMSO samples. All values are presented as average percentages±s.e.m.

LN229 cells [2] = assay: LN229 glioma sphere formation and growth assay; format: cell-based, human; conditions: for Effect on LN229 sphere formation: day 1; for Effect on LN229 sphere formation / Effect on LN229 sphere growth: in words
Method: FIGS. 5(A-E) illustrate a histogram and images showing the results of the LN229 sphere formation and growth assays. Selected inhibitors, activators, and control compounds identified in LN229 and/or U87 scratch wound closure assays were retested at 100 μM in a secondary assay for glioma cell (LN229) sphere formation and growth. A. Histogram showing the effects of the indicated compounds on sphere formation. On day 1, sphere footprint areas were determined and normalized to the average footprint area of the unblinded vehicle-treated controls. On day 1, a larger footprint area indicates inhibition of aggregation. B. Histogram showing the effects of the indicated compounds on sphere growth. On day 7, the changes in sphere footprint areas were calculated and normalized to the average size change of the unblinded vehicle-treated controls. On day 7, a smaller value indicates reduced growth. […] Data is presented as percentages±s.e.m. of 2-4 replicates. Representative images of samples treated with DMSO (C) and two priority inhibitors (D and E) are shown. Relative day 1 footprint areas and day 7 growth measurements are indicated for each example.
FIGS. 15(A-D) illustrate a histogram and images of titration of selected compounds on LN229 sphere formation and growth. LN229 cells were plated onto non-adherent surfaces and treated with the indicated compounds at 100, 50, and 25 μM. A. On day 1, sphere footprint areas were determined and normalized to the average footprint area of the unblinded vehicle-treated controls. On day 1, a larger foot-print area indicates inhibition of aggregation. B. On day 7, the changes in sphere footprint areas were calculated and normalized to the average size change of the unblinded vehicle-treated controls. On day 7, a smaller value indicates reduced growth. […] Data is presented as percentages±s.e.m. The initial test at 100 μM and the follow-up at that dose with titration is shown. Each bar is the average of 2 replicates. Representative day 1 (C) and day 7 (D) images of samples treated with two priority inhibitors are shown. Relative day 1 sphere footprint areas and day 7 growth for each example are indicated.
as §1
We tested the effects of twenty-four compounds (11 flagged as inhibitory, 4 as stimulatory, and nine as inert in the initial scratch-wound screen, FIG. 2) on the ability of LN229 cells to mediate cell-cell adhesion and grow in 3D culture on non-adherent surfaces. To quantify sphere formation (FIG. 5A), the footprint areas of aggregates were measured on day 1 and normalized to that of the DMSO control. At this time point, a larger footprint size (>120%) indicates inhibition, i.e., the failure of cells to form a compact aggregate. To quantify sphere growth (FIG. 5B), we calculated the percent changes in sphere footprint areas between day 1 and day 7 and normalized them to that of the DMSO controls.

CCN(C(=O)CN1C(=O)NC(C)(CCC(C)C)C1=O)c1cccc2ccccc12 (stereo not shown) [Compound 247677616] was tested. Which “Effect on LN229 cell survival / cell death” value (LN229 cells [1]) did it give?
The value was “caused a qualitative increase in LN229-cell death; also recorded: causing LN229 cell death”.

What about the “Effect on PTPμ-dependent Sf9 aggregation / adhesion” value (PTPμ) of the same compound?
Its value is “not shown to affect PTPμ-mediated aggregation; also recorded: did not affect PTPμ-dependent adhesion”.

And the “Effect on Gli36 sphere formation” value (Gli36 cells; 100 μM)?
Its value is “completely blocked Gli36 sphere formation; also recorded: fell apart on day 1”.

And the activity at 100 µM (Gli36 cells; Homo sapiens, GLI36, 168 h, read-out: Gli36 sphere growth (indicated value; sample fell apart on day 1), growth could not be calculated, indicated as '0' growth)?
Its activity at 100 µM is 0%.

What about the “Effect on LN229 sphere formation” value (LN229 cells [2]; 100 μM) of the same compound?
The value was “completely blocked sphere formation”.

Which “Effect on LN229 cell survival / cell death” value (LN229 cells [1]) does the source give for O=C(NCc1nc(-c2ccncc2)no1)c1ccc(Cl)c(S(=O)(=O)NCc2ccccc2)c1 [Compound 247678791] here?
Its value is “did not affect LN229 survival”.

What about the “Effect on PTPμ-dependent Sf9 aggregation / adhesion” value (PTPμ) of the same compound?
Its value is “PTPμ-dependent adhesion; also recorded: inhibitors; also recorded: fewer/smaller aggregates; also recorded: affect PTPμ-mediated aggregation”.

And the “Effect on Gli36 sphere formation” value (Gli36 cells; 100 μM)?
Its value is “slowed condensation of Gli36 cells”.

What about the “Effect on Gli36 sphere growth” value (Gli36 cells; 100 μM, day 7) of the same compound?
The value was “grew more slowly than controls”.

And the “Effect on LN229 sphere formation” value (LN229 cells [2]; 50 μM)?
Its value is “slowed aggregation at 100 and 50 μM”.

What about the “Effect on LN229 sphere formation” value (LN229 cells [2]; 100 μM) of the same compound?
Its value is “aggregated more slowly than controls; also recorded: slowed aggregation at 100 and 50 μM”.

What about the “Effect on LN229 sphere growth” value (LN229 cells [2]; 100 μM, day 7) of the same compound?
The value was “grew poorly in 3D culture”.

What about the sphere growth relative to control at 100 µM (LN229 cells [2]; Homo sapiens, LN-229, 168 h, read-out: LN229 sphere growth relative to control (threshold for inhibition), heading: LN229 sphere growth relative to control, 100 μM, day 7) of the same compound?
The sphere growth relative to control at 100 µM was less than 60%.

Which results are given for COc1cc(C)ccc1OCC(=O)Nc1nc(-c2c[nH]c(C(N)=O)c2)cs1 [Compound 247678835]?
Effect on LN229 cell survival / cell death (LN229 cells [1]): caused a qualitative increase in LN229-cell death; also recorded: induced LN229-cell death in vitro; also recorded: affect the survival of LN229 cells; Effect on PTPμ-dependent Sf9 aggregation / adhesion (PTPμ): PTPμ-dependent adhesion; also recorded: inhibitors; also recorded: fewer/smaller aggregates; also recorded: strongest pan-inhibitor to affect PTPμ-dependent aggregation; also recorded: affect PTPμ-mediated aggregation; Effect on Gli36 sphere formation (Gli36 cells; 100 μM): slowed aggregation of Gli36 cells; Gli36 sphere appearance (Gli36 cells; 100 μM, day 7): more optically translucent than control spheres on Day 7; Effect on Gli36 sphere growth (Gli36 cells; 100 μM, day 7): grew poorly; Effect on LN229 sphere formation (LN229 cells [2]; 50 μM): condensation was slowed; Effect on LN229 sphere growth (LN229 cells [2]; 50 μM, day 7): grew poorly in culture; Effect on LN229 sphere formation (LN229 cells [2]; 100 μM): failed to compact and formed a mat of cells at the bottom of the well; also recorded: dramatically disrupted sphere formation at 100 μM; minimal effective concentration (LN229 cells [2]; Homo sapiens, LN-229, titration 100, 50, 25 μM, read-out: Lowest dose effective at inhibiting LN229 sphere growth): 50 µM
